Reference: patent US20120083460A1 (SAN EI GEN F.F.I., INC., priority 2009, published 2012)
Where “and” joins values, the source holds several entries; their conditions need not be identical. Identical values can stand only once. Like-named read-outs stand apart in the source and are kept apart here.

Assays:
[1] = Evaluation of fading suppressing effect, fluorescent light irradiation (Experiment Example 4); details: final IQC 0.01% (γ-CD alone 0.14%), drink pH 3.1
Protocol: (§1) Specifically, a colorant-containing acidic drink of the formulation below was prepared. […] The drinks were irradiated with a fluorescent light (BIOTRON LH 300, NK System) or a UV Fade Meter (UV Long-Life Fade Meter FAL-3, Suga Test Instruments Co., Ltd.) for the durations presented in Table 6. Absorbance was measured before and after the irradiation, and the percentage remaining color (%) after the irradiation was calculated. Further, as a control test, a colorant-containing acidic drink was irradiated with the UV Fade Meter or fluorescent light as above without adding anything (no addition), and the percentage remaining color (%) after the irradiation was calculated.

[2] = Evaluation of fading suppressing effect, UV Fade Meter irradiation (Experiment Example 4); details: final IQC 0.01% (γ-CD alone 0.14%), drink pH 3.1
Protocol: as §1

[3] = Evaluation of the solubility of other flavonoids in water (Experiment Example 2); assay type: physicochemical
Protocol: The solubility (mg/ml) of each composition in water in terms of the flavonoid was then determined according to the method of Experiment Example 1. The solubility (mg/ml) of the flavonoid itself in water was also determined as a control, and the solubility (fold) was calculated from the relative ratio of the two.

[4] = Absorption in the body: IQC metabolites in plasma after oral administration (Experiment Example 6); assay type: in vivo; details: 375 mg IQC equivalent, person n=1
Protocol: After 1, 2, and 3 hours from the administration, bloods were collected using heparin as anti-coagulant from the person, and centrifuged to obtain plasmas.
About 29,000 unit/ml β-glucuronidase (20 μl) dissolved in 0.58 M sodium acetate buffer (pH 4.9) was added to the plasma (180 μl), and the mixture was left unattended at 37° C. for 30 min. After adding 1 M AsA/10 mM sodium metaphosphate (50 μl, in terms of phosphoric acid) and 20 μg/ml diosmetin (9 μl), the mixture was frozen at −80° C., and freeze dried overnight. The freeze dried sample was suspended in MeOH (1 ml), and centrifuged at 15,000 rpm for 10 min. The supernatant was concentrated and dried, and dissolved in MeOH (90 μl). After adding 200 mM HCl (90 μl), the solution was centrifuged at 15,000 rpm for 10 min to collect the supernatant. The IQC metabolites quercetin, isorhamnetin, and tamarixetin in the plasma were then quantified by HPLC under the conditions below.

[5] = Evaluation of IQC composition solubility in water (Experiment Example 1); assay type: physicochemical; details: for Solubility (in terms of isoquercitrin, mg/ml): water, shaken at 25° C. for 40 hours, solution pH 4.7-5.7 (Table 1)
Protocol: The Samples were added until they could not be dissolved further and formed deposits. Each solution was shaken at 25° C. for 40 hours, and centrifuged at 9,000 rpm for 10 min to collect the supernatant. The supernatant was appropriately diluted with a 0.1% phosphoric acid aqueous solution, and absorbance (340 nm) was measured.

[6] = Evaluation of preservation stability (presence or absence of deposits) in acid and sugar solution (Experiment Example 3); assay type: physicochemical; set-up: key: +: the presence of deposits; −: the absence of deposits; ×: no dissolution in the acid and sugar solution; details: 30 days
Protocol: Each solution was hot-packed in a 200-ml PET bottle (93° C.). The drink so prepared was allowed to cool, and placed under 50° C., room temperature (25±2° C.), and low-temperature (5° C.) conditions for 30 days. The presence or absence of deposits was then checked by visual inspection.
The drink so prepared was allowed to cool, and placed under 50° C., room temperature (25±2° C.), and low-temperature (5° C.) conditions for 30 days. The presence or absence of deposits was then observed.
In the table, the symbol “+” means the presence of deposits, and “−” the absence of deposits. The symbol “×” means no dissolution in the acid and sugar solution.

[7] = Evaluation of water solubility with α- and β-cyclodextrins (Reference Experiment Example); assay type: physicochemical; details: water (25° C.), method of Experiment Example 1
[8] = Evaluation of flavor deterioration suppressing effect, sensory evaluation by six panelists (Experiment Example 5); details: drinks of formulations 1 to 7, IQC added as it is, final IQC 0.01%
Protocol: In the same manner, γ-CD (Wacker Chemical) was added to each drink in a final concentration of 0.14% to prepare a drink that contained γ-CD.
The drinks prepared as above were tested under the severity conditions presented in Table 9, and changes in drink flavor after the test were examined by six panelists in a sensory evaluation. Evaluations were made according to the following criteria on the scale of 1 (stress tested drink (blank) without any addition) to 5 (each drink before the test).
Table 9 presents means values of the scored points evaluated by the six panelists.

[9] = Cochineal colorant, fluorescence irradiation 6 D
[10] = Elderberry colorant, fluorescence irradiation 2 D
[11] = Grape juice colorant, fluorescence irradiation 20 D
[12] = Paprika colorant, fluorescence irradiation 1 D
[13] = Purple corn colorant, fluorescence irradiation 1 D
[14] = Purple sweet potato colorant, fluorescence irradiation 8 D
[15] = Red cabbage colorant, fluorescence irradiation 4 D
[16] = Safflower yellow colorant, fluorescence irradiation 4 D
[17] = β-carotene, fluorescence irradiation 6 D
[18] = Cochineal colorant, UV fade meter irradiation 6 H
[19] = Elderberry colorant, UV fade meter irradiation 2 H
[20] = Grape juice colorant, UV fade meter irradiation 20 H
[21] = Paprika colorant, UV fade meter irradiation 3 H
[22] = Purple corn colorant, UV fade meter irradiation 4 H
[23] = Purple sweet potato colorant, UV fade meter irradiation 7 H
[24] = Red cabbage colorant, UV fade meter irradiation 8 H
[25] = Safflower yellow colorant, UV fade meter irradiation 4 H
[26] = β-carotene, UV fade meter irradiation 17 H

## OC[C@H]1O[C@@H]2O[C@H]3[C@H](O)[C@@H](O)[C@@H](O[C@H]4[C@H](O)[C@@H](O)[C@@H](O[C@H]5[C@H](O)[C@@H](O)[C@@H](O[C@H]6[C@H](O)[C@@H](O)[C@@H](O[C@H]7[C@H](O)[C@@H](O)[C@@H](O[C@H]8[C@H](O)[C@@H](O)[C@@H](O[C@H]9[C@H](O)[C@@H](O)[C@@H](O[C@H]1[C@H](O)[C@H]2O)O[C@@H]9CO)O[C@@H]8CO)O[C@@H]7CO)O[C@@H]6CO)O[C@@H]5CO)O[C@@H]4CO)O[C@@H]3CO [γ-CD, γ-cyclodextrin]
[1]; [9]
  percentage remaining color (%): 71.5%
[1]; [10]
  percentage remaining color (%): 66.2%
[1]; [11]
  percentage remaining color (%): 88.1%
[1]; [12]
  percentage remaining color (%): 90.3%
[1]; [13]
  percentage remaining color (%): 69.2%
[1]; [14]
  percentage remaining color (%): 75.6%
[1]; [15]
  percentage remaining color (%): 54.0%
[1]; [16]
  percentage remaining color (%): 69.2%
[1]; [17]
  percentage remaining color (%): 60.6%
[2]; [18]
  percentage remaining color (%): 80.8%
[2]; [19]
  percentage remaining color (%): 65.2%
[2]; [20]
  percentage remaining color (%): 88.7%
[2]; [21]
  percentage remaining color (%): 37.6%
[2]; [22]
  percentage remaining color (%): 36.2%
[2]; [23]
  percentage remaining color (%): 79.4%
[2]; [24]
  percentage remaining color (%): 25.1%
[2]; [25]
  percentage remaining color (%): 62.4%
[2]; [26]
  percentage remaining color (%): 60.5%

## C[C@@H]1O[C@@H](O[C@H]2[C@H](Oc3cc(O)c4c(c3)O[C@H](c3ccc(O)cc3)CC4=O)O[C@H](CO)[C@@H](O)[C@@H]2O)[C@H](O)[C@H](O)[C@H]1O [Naringin, naringin]
[3]
  Solubility (fold) (in terms of flavonoids): 1 fold

## O=c1c(O)c(-c2ccc(O)c(O)c2)oc2cc(O)cc(O)c12 [Quercetin, quercetin]
[3]
  Solubility (fold) (in terms of flavonoids): 1 fold

## O=c1c(O[C@@H]2O[C@H](CO)[C@@H](O)[C@H](O)[C@H]2O)c(-c2ccc(O)c(O)c2)oc2cc(O)cc(O)c12 [IQC, isoquercitrin]
[3]; Flavonoid:γ-CD = 1:0 (mole ratio), flavonoid itself = reference 1
  Solubility (fold) (in terms of flavonoids): 1 fold
[4]; blood collection time 0 h
  Isorhamnetin in plasma: 0 µg/mL
  Quercetin in plasma: 0.02 µg/mL
  Tamarixetin in plasma: 0 µg/mL
  Total flavonoid (quercetin, isorhamnetin, tamarixetin) in plasma: 0.02 µg/mL
[4]; blood collection time 1 h
  Isorhamnetin in plasma: 0 µg/mL
  Quercetin in plasma: 0.01 µg/mL
  Tamarixetin in plasma: 0 µg/mL
  Total flavonoid (quercetin, isorhamnetin, tamarixetin) in plasma: 0.01 µg/mL
[4]; blood collection time 2 h
  Isorhamnetin in plasma: 0.02 µg/mL
  Quercetin in plasma: 0.15 µg/mL
  Tamarixetin in plasma: 0.06 µg/mL
  Total flavonoid (quercetin, isorhamnetin, tamarixetin) in plasma: 0.2 µg/mL and 0.22 µg/mL
[4]; blood collection time 3 h
  Isorhamnetin in plasma: 0.01 µg/mL
  Quercetin in plasma: 0.15 µg/mL
  Tamarixetin in plasma: 0.03 µg/mL
  Total flavonoid (quercetin, isorhamnetin, tamarixetin) in plasma: 0.20 µg/mL
[4]; total metabolites in plasma, 0-3 h
  AUC: 0.34 (μg/ml)·hr
[5]; acidic condition at 25° C.
  upper limit solubility in water: 0.0102 mass %
[5]
  Solubility (in terms of isoquercitrin, mg/ml): 0.1020 mg/mL
[5]; listed as Control
  Solubility (in terms of isoquercitrin, mg/ml): 0.10 mg/mL
[5]; listed as isoquercitrin
  Solubility (in terms of isoquercitrin, mg/ml): 0.102 mg/mL
[6]; pH 6, 50° C., flavonoid concentration 0.05%
  presence or absence of deposits: −
[6]; pH 6, Refrigerated (5° C.), flavonoid concentration 0.05%
  presence or absence of deposits: +
[6]; pH 6, Room temperature, flavonoid concentration 0.05%
  presence or absence of deposits: +
[6]; pH 9, 50° C., flavonoid concentration 0.05%
  presence or absence of deposits: −
[6]; pH 9, 50° C., flavonoid concentration 0.10%
  presence or absence of deposits: −
[6]; pH 9, Refrigerated (5° C.), flavonoid concentration 0.05%
  presence or absence of deposits: +
[6]; pH 9, Refrigerated (5° C.), flavonoid concentration 0.10%
  presence or absence of deposits: +
[6]; pH 9, Room temperature, flavonoid concentration 0.05%
  presence or absence of deposits: −
[6]; pH 9, Room temperature, flavonoid concentration 0.10%
  presence or absence of deposits: +
[7]
  Solubility (in terms of isoquercitrin, mg/ml): 0.10 mg/mL
[8]
  IQC deposits in the prepared drink: deposits were observed within several hours
[1]; [9]
  percentage remaining color (%): 75.6%
[1]; [10]
  percentage remaining color (%): 64.5%
[1]; [11]
  percentage remaining color (%): 91.1%
[1]; [12]
  percentage remaining color (%): 91.3%
[1]; [13]
  percentage remaining color (%): 76.4%
[1]; [14]
  percentage remaining color (%): 76.9%
[1]; [15]
  percentage remaining color (%): 60.1%
[1]; [16]
  percentage remaining color (%): 72.8%
[1]; [17]
  percentage remaining color (%): 71.2%
[2]; [18]
  percentage remaining color (%): 91.1%
[2]; [19]
  percentage remaining color (%): 70.2%
[2]; [20]
  percentage remaining color (%): 93.1%
[2]; [21]
  percentage remaining color (%): 55.8%
[2]; [22]
  percentage remaining color (%): 59.8%
[2]; [23]
  percentage remaining color (%): 88.0%
[2]; [24]
  percentage remaining color (%): 50.8%
[2]; [25]
  percentage remaining color (%): 71.6%
[2]; [26]
  percentage remaining color (%): 74.2%

## O=c1c(O)c(-c2cc(O)c(O)c(O)c2)oc2cc(O)cc(O)c12 [Myricetin, myricetin]
[3]
  Solubility (fold) (in terms of flavonoids): 1 fold
